The source of these data is the NIST ThermoML archive (doi:10.1016/j.tca.2008.09.010).

Structures are written as SMILES. Numbers after ± are expanded uncertainties.

For data set [1] the following is noted: Crystal; DTA.
Data set [2] in a line: Molar enthalpy of transition or fusion. The conditions noted are these: Crystal; DSC.

On to `Clc1ccccc1Cl` [1,2-dichlorobenzene], for which, in data set [1], the Normal melting temperature was -17.30 ± 0.5 °C. Further, in data set [2], the “Molar enthalpy of transition or fusion” value was found to be 3.13 ± 0.0789 kcal/mol.
The matching figures for `Clc1cccc(Cl)c1` [1,3-dichlorobenzene]: -24.90 ± 0.5 °C and 2.99 ± 0.0765 kcal/mol.
On the same counts, the results for `Clc1ccc(Cl)cc1` [1,4-dichlorobenzene] are 53.00 ± 0.5 °C and 4.32 ± 0.103 kcal/mol.
With `c1ccc2c(c1)ccc1ccccc12` [phenanthrene], the Normal melting temperature in data set [1] worked out at 98.90 ± 0.5 °C. Further, the “Molar enthalpy of transition or fusion” value in data set [2] is 3.99 ± 0.0956 kcal/mol.
